Measured values as given in patent publication US20250213547A1, “METHODS OF TREATING NEUROLOGICAL DISEASES” (priority 2022, published 2025).

Legend:
[1] = Adult DEE patients (Part A/Part B): safety and tolerability; type: in vivo, human
Source text: The third clinical trial was a randomized, double-blind, placebo controlled study. […] After the completion of Part A, 16 patients continued in Part B with open-label treatment for 60 additional days. Patients were included in the trial if they were 18-65 years of age with an established diagnosis of DEE, such as Lennox-Gastaut syndrome, Dravet syndrome, or tuberous sclerosis complex. For enrollment, patients were required to have had at least two bilateral motor seizures per month in the three months prior. In addition, during the 4-week baseline period prior to dosing, patients were required to have incurred at least one bilateral motor seizure. Exclusion criteria included abnormal ECG, degenerative eye disease, or admission to emergency care for treatment of status epilepticus that required mechanical ventilation.
Only patients having at least one bilateral seizure during the baseline study were eligible to continue. […] The range of seizure types included tonic-clonic, drop seizures, tonic, atonic, bilateral clonic, myoclonic-atonic, myotonic-tonic-clonic, and focal seizures. Aside from seizure history, subjects were also enrolled based on an establish diagnosis of DEE, such as Lennox-Gastaut syndrome (LGS) and Dravet syndrome (DS), tuberous sclerosis complex, and a history of special education or an overall intellectual quotient of <70. […] Subjects could continue taking 1-4 anti-seizure medicines (ASM), with the exception of stiripentol, during the study. […]
The safety and tolerability assessments included blood pressure, heart rate, respiratory rate, temperature, treatment-emergent adverse effects, clinical laboratory tests, electrocardiogram data, neurological and ophthalmic examination, and the Columbia-suicide severity rating scale (C-SSRS).
Patients were dosed 100 mg, 200 mg, or 300 mg BID. Dosage (mg BID) in each interval reflects the final dose during that interval. Fields showing 0 mg in days 1-10, 11-20, and 21-30 intervals are patients who were assigned to the placebo group in Part A of the study.

[2] = clinical; settings: human, in vivo; for AUC: AUC24 / mean steady-state area under the curve
Method: Soticlestat was administered in tablet formulation during fasting condition. […] Blood samples were obtained before the first morning dose, and at 1, 3, and 5 hours post-dose. On days 11 and 21, blood samples were taken before the morning dose and 1 hour post-dose. In Part B, patients were administered 200 mg BID for days 31-40, followed by 300 mg BID for days 41-85. On days 31, 41, and 85, blood samples were taken before the morning dose. […] The AUC24 for doses 100, 200, and 300 mg BID were 562.5, 1437, and 2188 ng×h/mL, respectively.
Blood samples were collected before and after the morning dose on days 1, 11, and 21, and before and after the morning dose on days 31, 41, and 85.

[3] = tested on: seizure frequency in pediatric patients with Dravet syndrome or Lennox-Gastaut syndrome; assay: ELEKTRA: percent change in seizure frequency from baseline; type: in vivo, human; settings: for Number of patients with 25% reduction in seizures (responders) / Number of patients with 50% reduction in seizures (responders) / Number of patients with 75% reduction in seizures (responders) / Number of patients with 100% reduction in seizures (responders): maintenance period; for Median percent change in seizure frequency from baseline / Range of percent change in seizure frequency from baseline / seizure frequency change from baseline versus placebo: ELEKTRA; for Median percent change in seizure frequency from baseline / Range of percent change in seizure frequency from baseline: N 64; for seizure frequency change from baseline versus placebo: pediatric DEE patients
Source text: Other inclusion criteria were body weight ≥10 kg, currently taking a fixed dosage of 1 to 4 antiseizure medications, and failure to remain seizure free after trying at least two antiseizure medications. Convulsive seizures include focal to bilateral tonic-clonic with impaired awareness, hemi-clonic, simultaneous bilateral clonic, and generalized tonic-clonic seizures. Drop seizures can involve the entire body, trunk, or head which leads to falling. […] Approximately 126 patients ages ≥2 and ≤17 years were enrolled in the study. The study included two main phases, a 4-6 week screening and baseline period, and a 20-week treatment period. Patients received doses twice a day in a tablet formulation. The starting dose was adjusted according to the patient's body weight (Table 17).
During the first 8 weeks of treatment patient dosing was a titrated for individual optimization. The remaining 12-weeks of treatment consisted of a maintenance phase. The study began with treating patients ≥9 years of age for one month before treating younger patients. Blood was collected for PK analysis on the first dosage day within one hour of the morning dose, and 30 minutes, and 1, 2, 3, and 4 hours post-dose. Subsequent blood sampling took place before the morning dose and 30 minutes post-dose. Blood samples were obtained at scheduled times for determining PK profile and Tmax, which is the time Cmax was reached. A patient's seizure frequency was recorded before and during the trial to calculate percent change from baseline.
The ELEKTRA study is described in the specification and in examples 12 and 13. […] Statistical significance was computed using a Rank Transformed Analysis of Covariance (ANCOVA) with a 2-side p-value, while adjusting for baseline seizure frequency and indication.

[4] = tested on: plasma 24HC; assay: Healthy Japanese subjects, Part 2: plasma 24HC pharmacodynamics; type: in vivo, human
Method: TAK-935 or placebo was administered to the 9 subjects at the dose of 100 mg BID from Day 1 to Day 7, then 200 mg BID from Day 8 to Day 14, and finally 300 mg BID from Day 15 to Day 21, and safety, PK and PD were investigated. The planned dose levels of TAK-935 to be evaluated are outlined in Table 40a.
Blood samples for PD analysis of plasma 24HC level were collected into blood collection tubes (vacutainer) containing the anticoagulant K2EDTA.
The PD assessments described below were performed at the time points stipulated in the schedule of procedures. The additional PD endpoints included the following PD parameters for plasma 24HC: […]

[5] = Dravet syndrome, Weeks 9-20, N 24
[6] = Day 21 after 100 mg BID, 200 mg BID, and 300 mg BID, mean
[7] = multiple doses 100 mg BID, 200 mg BID, and 300 mg BID (Day 21), mean

For O=C(c1cccnc1-c1ccncc1)N1CCC(O)(Cc2ccccc2)CC1 [soticlestat], the “Upper respiratory tract infection, n participants” value ([1]; Part A, soticlestat (n = 14)) was 2 n, the “Upper respiratory tract infection, n participants” value ([1]; Part B open-label, all (n = 16)) was 1 n and the “Dysarthria, n participants” value ([1]; human, in vivo, 30 days) was 3 n. For the same molecule, the “Fatigue, n participants” value ([1]; human, in vivo, 30 days) was 2 n, the “Headache, n participants” value ([1]; human, in vivo, 30 days) was 2 n and the “Lethargy, n participants” value ([1]; human, in vivo, 30 days) was 2 n. For the same molecule, the TEAE incidence ([1]; human, in vivo, 30 days) was 71.4%, the deaths ([1]; soticlestat arm) was “no deaths” and the clearance ([2]; 100 mg) was 4320 mL/min. It also gave an AUC ([2]; 100 mg) of 0.562 µg·h/mL, a Cmax ([2]; 100 mg, Cmax steady state, mean) of 0.27 µg/mL and a clearance ([2]; 200 mg) of 3260 mL/min. It also gave an AUC ([2]; 200 mg) of 1.44 µg·h/mL, a Cmax ([2]; 200 mg, Cmax steady state, mean) of 0.64 µg/mL and a clearance ([2]; 300 mg) of 3170 mL/min. It also gave an AUC ([2]; 300 mg) of 2.19 µg·h/mL, a Cmax ([2]; 300 mg, Cmax steady state, mean) of 0.975 µg/mL and a Cmax ([2]; Study TAK-935-2001, 200 mg BID, Mean, read-out: Cmax, ss) of 1.27 µg/mL. For the same molecule, the “Median percent change in convulsive seizure frequency per 28 days from baseline” value [3, 5] was −36.5%, the “Range of percent change in convulsive seizure frequency per 28 days from baseline” value [3, 5] was “(−100 to 84.1) %” and the “Number of patients with 25% reduction in seizures (responders)” value ([3]; Dravet syndrome, N 24) was 66.7. For the same molecule, the “Number of patients with 50% reduction in seizures (responders)” value ([3]; Dravet syndrome, N 24) was 41.7, the “Number of patients with 75% reduction in seizures (responders)” value ([3]; Dravet syndrome, N 24) was 20.8 and the “Number of patients with 100% reduction in seizures (responders)” value ([3]; Dravet syndrome, N 24) was 8.3. For the same molecule, the “Median percent change in seizure frequency from baseline” value ([3]; Weeks 0-20) was −30.05%, the “Range of percent change in seizure frequency from baseline” value ([3]; Weeks 0-20) was “(−100-347.5) %” and the “Median percent change in seizure frequency from baseline” value ([3]; Weeks 9-20) was −27.76%. For the same molecule, the “Range of percent change in seizure frequency from baseline” value ([3]; Weeks 9-20) was “(−100 to 160.6) %”, the “Median percent change from baseline in drop seizure frequency per 28 days” value ([3]; Lennox-Gastaut syndrome, Weeks 9-20, N 40) was −18.46% and the “Number of patients with 25% reduction in seizures (responders)” value ([3]; Lennox-Gastaut syndrome, N 40) was 42.5. The “Number of patients with 50% reduction in seizures (responders)” value ([3]; Lennox-Gastaut syndrome, N 40) was 27.5, the “Number of patients with 75% reduction in seizures (responders)” value ([3]; Lennox-Gastaut syndrome, N 40) was 10 and the “Number of patients with 100% reduction in seizures (responders)” value ([3]; Lennox-Gastaut syndrome, N 40) was 5. For the same molecule, the “seizure frequency change from baseline versus placebo” value [3] was “highly significant”, the “seizure frequency change from baseline versus placebo” value ([3]; listed as Soticlestat) was “significantly decreased seizure frequency” and the “maximum mean decrease of trough plasma 24HC from time-matched baseline” value ([4]; Day 21, up-titration to 300 mg BID) was “about 88%”. The “AUEC24 of plasma 24HC” value [4, 6] was 124.2 ng·h/mL, the “AVECτ of plasma 24HC (AUEC during a dosing interval)” value [4, 6] was 61.28 ng·h/mL and the “E12 of plasma 24HC (observed effect at 12 hours)” value [4, 6] was 5.443 ng/mL. The “E24 of plasma 24HC (observed effect at 24 hours)” value [4, 6] was 5.013 ng/mL, the “Emax of plasma 24HC” value [4, 6] was 4.640 ng/mL and the “Time to Emax of plasma 24HC” value ([4]; Day 21 after 100 mg BID, 200 mg BID, and 300 mg BID, median) was 6.000 h. The Emax ([4]; Homo sapiens, 504 h, multiple doses 100 mg BID, 200 mg BID, and 300 mg BID (Day 21), mean, read-out: % change from Baseline in Emax of plasma 24HC) was -86.7%, the “% change from Baseline in AUEC24 of plasma 24HC” value [4, 7] was −86.75% and the “% change from Baseline in AUECτ of plasma 24HC” value [4, 7] was −86.62%. The “% change from Baseline in E12 of plasma 24HC” value [4, 7] was −85.83% and the “% change from Baseline in E24 of plasma 24HC” value [4, 7] was −87.67%.
